Source: the supplement of paper PMC10627819

Tests used:
B. subtilis 168 [1] = assay: Bliss interaction score (quartile over a dose matrix) (fitness difference); higher = more antagonism (negative = synergy)
Procedure, shortened: (§1)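 OD595 was read at entry into stationary phase and expressed relative to the robust mean of the no-drug wells on the same plate, capped at 1. The resulting ratio is the fitness value. The Bliss score, observed fitness minus product-based expected fitness with single-drug fitness inferred from combinations, is summarised by quartiles over technical, biological and donor/recipient replicates.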

S. aureus Newman [2] = assay: as above
Procedure, shortened: as §1

S. aureus DSM 20231 [3] = assay: as above
Procedure, shortened: as §1

S. pneumoniae D39V [4] = assay: as above
Procedure, shortened: as §1

B. subtilis 168 [5] = assay: fitness (endpoint OD595 vs no drug) (fraction); higher = more growth
Procedure, shortened: (§2)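 At 37 °C, bacteria in TSB, LB Lennox or CY were grown in 384-well plates from a starting OD595 of 0.01. OD595 was measured every 30 min for 14 h, with the first reading used as background. Fitness is the optical density at the switch to stationary phase as a fraction of the robust mean of no-drug control wells, capped at 1.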

S. aureus Newman [6] = assay: as above
Procedure, shortened: as §2

S. aureus DSM 20231 [7] = assay: as above
Procedure, shortened: as §2

S. pneumoniae D39V [8] = assay: as above
Procedure, shortened: as §2
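For Bliss interaction score (quartile over a dose matrix) in this document: first quartile when negative (synergy) and third quartile when positive (antagonism).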

CO/N=C(\C(=O)N[C@@H]1C(=O)N2C(C(=O)O)=C(COC(C)=O)CS[C@H]12)c1csc(N)n1 [Cefotaxime] + CN1C2=CC=CC=C2N=C3C1=CC=CC3=O [Pyocyanin]
Conditions | Bliss interaction score
B. subtilis 168 [1] | 0.0372
S. aureus DSM 20231 [3] | 0.0641
S. aureus Newman [2] | 0.0647
S. pneumoniae D39V [4] | 0.0458

fitness, one replicate
Conditions | partner 1.25 µg/mL | partner 2.5 µg/mL | partner 5 µg/mL
B. subtilis 168 [5], first compound 0.00775 µg/mL | 0.775 | 0.712 | 0.534
B. subtilis 168 [5], first compound 0.0155 µg/mL | 0.665 | 0.543 | 0.407
B. subtilis 168 [5], first compound 0.031 µg/mL | 0.522 | 0.462 | 0.35
S. aureus DSM 20231 [7], first compound 0.039 µg/mL | 0.748 | 0.738 | 0.512
S. aureus Newman [6], first compound 0.039 µg/mL | 0.677 | 0.696 | 0.424
S. aureus Newman [6], first compound 0.625 µg/mL | 0.0517 | 0.0483 | 0.0237
S. aureus Newman [6], first compound 1.25 µg/mL | 0.0559 | 0.0861 | 0.0706
S. aureus Newman [6], first compound 2.5 µg/mL | 0.0452 | 0.0518 | 0.0704

fitness
Conditions | partner 0.325 µg/mL | partner 0.65 µg/mL | partner 1.25 µg/mL | partner 1.3 µg/mL | partner 2.5 µg/mL | partner 5 µg/mL
B. subtilis 168 [5], first compound 0.5 µg/mL | – | – | 0.291 | – | 0.264 | 0.229
B. subtilis 168 [5], first compound 1 µg/mL | – | – | 0.144 | – | 0.102 | 0.111
B. subtilis 168 [5], first compound 2 µg/mL | – | – | 0.0757 | – | 0.0908 | 0.0747
S. aureus DSM 20231 [7], first compound 0.078 µg/mL | – | – | 0.746 | – | 0.766 | 0.55
S. aureus DSM 20231 [7], first compound 0.156 µg/mL | – | – | 0.757 | – | 0.746 | 0.511
S. aureus DSM 20231 [7], first compound 0.312 µg/mL | – | – | 0.676 | – | 0.671 | 0.474
S. aureus Newman [6], first compound 0.078 µg/mL | – | – | 0.671 | – | 0.654 | 0.399
S. aureus Newman [6], first compound 0.156 µg/mL | – | – | 0.527 | – | 0.552 | 0.354
S. aureus Newman [6], first compound 0.312 µg/mL | – | – | 0.311 | – | 0.319 | 0.204
S. pneumoniae D39V [8], first compound 0.0018 µg/mL | 0.992 | ≥ 1 | – | 0.904 | – | –
S. pneumoniae D39V [8], first compound 0.0035 µg/mL | 0.98 | ≥ 1 | – | 0.871 | – | –
S. pneumoniae D39V [8], first compound 0.007 µg/mL | 0.934 | 0.947 | – | 0.839 | – | –

COc1ccc(C[C@H](N)C(=O)N[C@H]2[C@@H](O)[C@H](n3cnc4c(N(C)C)ncnc43)O[C@@H]2CO)cc1 [Puromycin] + CN[C@@H]1[C@H](O)[C@H](NC)[C@H]2O[C@@]3(O)C(=O)C[C@@H](C)O[C@H]3O[C@@H]2[C@H]1O [Spectinomycin]
Conditions | Bliss interaction score
B. subtilis 168 [1] | 0.0392
S. aureus DSM 20231 [3] | 0.0575
S. aureus Newman [2] | 0.0745
S. pneumoniae D39V [4] | 0.0718

fitness
Conditions | first compound 0.39 µg/mL | first compound 0.78 µg/mL | first compound 1 µg/mL | first compound 1.56 µg/mL | first compound 2 µg/mL | first compound 4 µg/mL
B. subtilis 168 [5], partner 2 µg/mL | 0.951 | 0.94 | – | 0.979 | – | –
B. subtilis 168 [5], partner 4 µg/mL | 0.948 | 0.952 | – | 0.963 | – | –
B. subtilis 168 [5], partner 8 µg/mL | 0.859 | 0.881 | – | 0.848 | – | –
S. aureus DSM 20231 [7], partner 4 µg/mL | 0.959 | 0.943 | – | 0.965 | – | –
S. aureus DSM 20231 [7], partner 8 µg/mL | 0.957 | 0.998 | – | 0.956 | – | –
S. aureus DSM 20231 [7], partner 16 µg/mL | 0.943 | 0.884 | – | 0.888 | – | –
S. aureus Newman [6], partner 4 µg/mL | 0.912 | 0.922 | – | 0.964 | – | –
S. aureus Newman [6], partner 8 µg/mL | 0.962 | 0.95 | – | 0.937 | – | –
S. aureus Newman [6], partner 16 µg/mL | 0.914 | 0.904 | – | 0.873 | – | –
S. pneumoniae D39V [8], partner 4 µg/mL | – | – | 0.931 | – | 0.951 | 0.772
S. pneumoniae D39V [8], partner 8 µg/mL | – | – | 0.877 | – | 0.892 | 0.728

one replicate
Conditions | fitness
S. aureus DSM 20231 [7], first compound 0.39 µg/mL, partner 32 µg/mL | 0.741
S. aureus DSM 20231 [7], first compound 0.39 µg/mL, partner 64 µg/mL | 0.11
S. aureus DSM 20231 [7], first compound 0.78 µg/mL, partner 32 µg/mL | 0.802
S. aureus DSM 20231 [7], first compound 0.78 µg/mL, partner 64 µg/mL | 0.172
S. aureus DSM 20231 [7], first compound 1.56 µg/mL, partner 32 µg/mL | 0.757
S. aureus DSM 20231 [7], first compound 1.56 µg/mL, partner 64 µg/mL | 0.142
S. aureus DSM 20231 [7], first compound 3.12 µg/mL, partner 4 µg/mL | 0.923
S. aureus DSM 20231 [7], first compound 3.12 µg/mL, partner 8 µg/mL | 0.948
S. aureus DSM 20231 [7], first compound 3.12 µg/mL, partner 16 µg/mL | 0.794
S. aureus DSM 20231 [7], first compound 6.24 µg/mL, partner 4 µg/mL | 0.629
S. aureus DSM 20231 [7], first compound 6.24 µg/mL, partner 8 µg/mL | 0.347
S. aureus DSM 20231 [7], first compound 6.24 µg/mL, partner 16 µg/mL | 0.183
S. aureus Newman [6], first compound 0.39 µg/mL, partner 32 µg/mL | 0.664
S. aureus Newman [6], first compound 0.39 µg/mL, partner 64 µg/mL | 0.15
S. aureus Newman [6], first compound 0.78 µg/mL, partner 32 µg/mL | 0.618
S. aureus Newman [6], first compound 0.78 µg/mL, partner 64 µg/mL | 0.0783
S. aureus Newman [6], first compound 1.56 µg/mL, partner 32 µg/mL | 0.569
S. aureus Newman [6], first compound 1.56 µg/mL, partner 64 µg/mL | 0.0656
S. pneumoniae D39V [8], first compound 1 µg/mL, partner 16 µg/mL | 0.867
S. pneumoniae D39V [8], first compound 2 µg/mL, partner 16 µg/mL | 0.863
S. pneumoniae D39V [8], first compound 4 µg/mL, partner 16 µg/mL | 0.613
